The text below walks through data of patent publication US20200268779A1, “USE OF SECOISOLARICIRESINOL DIGLUCOSIDES (SDGs) AND RELATED COMPOUNDS FOR PROTECTION AGAINST RADIATION-INDUCED CARDIOVASCULAR DYSFUNCTION” (THE TRUSTEES OF THE UNIVERSITY OF PENNSYLVANIA, priority 2017, published 2020).

This experiment has as its system mice exposed to thoracic radiation. In words: Thoracic radiation exposure in mice, non-invasive pulse oximetry (MouseOx). The class given is in vivo. As to conditions: male C57/LJ mice, single fraction thoracic radiation, LGM2605 post exposure daily for 3 weeks or daily for 3 months, measured 130-140 days post radiation. As for the experimental part:
FIG. 1. Arterial Oxygen saturation (A) and Pulse Distention (B) were measured in living mice (n=5), between 130 and 140 days post single fraction thoracic radiation exposure.
Mice (male, C57/LJ) were exposed to thoracic radiation and evaluated for multiple cardio-pulmonary measurements such as arterial oxygen saturation and pulse distention using non-invasive Pulse Oximetry (MouseOx non-invasive vital signs monitor STARR Life Sciences Corp., Oakmont, Pa.).
Pulse Distention is the amplitude of the cardiac light absorption signals. Pulse Distention is a hemodynamic measurement obtained by the pulse oximetry software, a measure of the local blood flow (carotid arteries) at the sensor location. […] This could indicate that LGM2605 helps reduce downstream effects of inflammation in tissues other than the lung.

Consider `COc1cc(C[C@@H](CO[C@@H]2O[C@H](CO)[C@@H](O)[C@H](O)[C@H]2O)[C@H](CO[C@@H]2O[C@H](CO)[C@@H](O)[C@H](O)[C@H]2O)Cc2ccc(O)c(OC)c2)ccc1O` [LGM2605, secoisolariciresinol diglucoside], for which the Pulse distention result (decreased significantly in irradiated controls (FIG. 1B)) is given as “remained at baseline levels”. Besides, where the note is “vs irradiated controls and vehicle (FIG. 1A)”, the “Arterial blood oxygenation (arterial oxygen saturation)” value is given as “improved arterial blood oxygenation”.
